Assay [1] concerns the target T1, Plasminogen (Homo sapiens, UniProt P00747). The experiment in a line: (§1) Compound was evaluated for its binding affinity against plasmin.
The target of the next assay is Serine protease 1 (Homo sapiens, UniProt P07477). Put plainly: Compound was evaluated for its binding affinity against trypsin.
The target in assay [2] is T1, Plasminogen. The assay is described as §1. The source holds these as a separate data set.
Another assay concerns the target Prothrombin (Homo sapiens, UniProt P00734). Put plainly: Compound was evaluated for its binding affinity against thrombin.
For another assay, the target named is Kallikrein-1 (Homo sapiens, UniProt P06870). Put plainly: Compound was evaluated for its binding affinity against kallikrein.
Kallikrein-1, sequence (P06870 whole entry): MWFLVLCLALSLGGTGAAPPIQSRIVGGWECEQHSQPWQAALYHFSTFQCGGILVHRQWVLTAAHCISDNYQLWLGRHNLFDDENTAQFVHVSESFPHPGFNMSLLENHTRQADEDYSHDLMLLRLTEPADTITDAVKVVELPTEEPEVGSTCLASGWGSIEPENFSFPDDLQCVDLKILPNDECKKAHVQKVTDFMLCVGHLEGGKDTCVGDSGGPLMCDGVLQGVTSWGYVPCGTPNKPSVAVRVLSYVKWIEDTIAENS

This note sets out measurements from ChEMBL document CHEMBL1132325, “4-Heterocyclohexanone-based inhibitors of the serine protease plasmin” (J Med Chem, 1999).

A word on the Ki: it is a measure of affinity in units of concentration, obtained from inhibition or displacement.

T1 sequence (P00747 97-580 limits assumed): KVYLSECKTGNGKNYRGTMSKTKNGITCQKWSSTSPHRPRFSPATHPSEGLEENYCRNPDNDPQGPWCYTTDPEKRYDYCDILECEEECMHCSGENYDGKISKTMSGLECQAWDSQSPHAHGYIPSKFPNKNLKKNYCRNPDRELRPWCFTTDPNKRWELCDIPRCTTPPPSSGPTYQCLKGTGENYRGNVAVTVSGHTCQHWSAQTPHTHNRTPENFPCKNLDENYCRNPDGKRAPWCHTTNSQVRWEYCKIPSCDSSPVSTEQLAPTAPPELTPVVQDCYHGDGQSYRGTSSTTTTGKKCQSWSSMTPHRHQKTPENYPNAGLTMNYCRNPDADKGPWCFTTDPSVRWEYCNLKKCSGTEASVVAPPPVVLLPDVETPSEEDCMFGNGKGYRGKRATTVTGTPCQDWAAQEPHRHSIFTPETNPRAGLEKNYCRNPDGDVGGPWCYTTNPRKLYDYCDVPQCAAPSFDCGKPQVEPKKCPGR
T1 sequence (P00747 581-810 limits assumed): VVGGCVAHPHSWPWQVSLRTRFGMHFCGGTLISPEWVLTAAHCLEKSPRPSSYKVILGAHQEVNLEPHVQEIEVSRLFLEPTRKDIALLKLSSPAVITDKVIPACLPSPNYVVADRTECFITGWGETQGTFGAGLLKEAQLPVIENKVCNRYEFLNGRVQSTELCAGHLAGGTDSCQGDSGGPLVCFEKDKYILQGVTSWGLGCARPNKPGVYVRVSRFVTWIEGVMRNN
Serine protease 1, sequence (P07477 whole entry): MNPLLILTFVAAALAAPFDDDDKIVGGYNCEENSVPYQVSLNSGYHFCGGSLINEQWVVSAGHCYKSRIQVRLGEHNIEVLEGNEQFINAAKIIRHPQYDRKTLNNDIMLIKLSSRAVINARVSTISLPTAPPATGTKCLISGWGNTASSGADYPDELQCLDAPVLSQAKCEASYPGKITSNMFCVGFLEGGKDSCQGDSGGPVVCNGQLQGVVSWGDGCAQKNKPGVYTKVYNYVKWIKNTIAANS

On Plasminogen [1], `CCC(C)[C@@H](N)C(=O)N[C@@H](Cc1ccccc1)C(=O)N(CCCCCCN)C1CCCCC1` (some centres not stated) gave a Ki of 520 µM.

Consider `CC[C@@H](C)[C@@H](N)C(=O)N[C@@H](Cc1ccccc1)C(=O)N(CCCCCCN)C1CSCCC1=O` (some centres not stated), for which the results for the Ki at Serine protease 1, on Plasminogen [1] and at Plasminogen [2] were 1700 µM, 130 µM and 50 µM, respectively.

In the case of `CC[C@H](C)[C@@H](N)C(=O)N[C@@H](Cc1ccccc1)C(=O)N(CCCCCCN)C1CSCCC1=O` (some centres not stated), the inhibition constant (Ki) came out at 720 µM at Prothrombin and 630 µM on Kallikrein-1.

For `NCCCCCCN(CCCCCCN)C1CSCCC1=O` (configuration not stated), the Ki was 1400 µM on Serine protease 1, more than 10000 µM on Prothrombin, more than 10000 µM on Kallikrein-1 and 400 µM at Plasminogen [2].

`CC[C@@H](C)[C@@H](N)C(=O)N[C@@H](Cc1ccccc1)C(=O)NC1CSCCC1=O` (stereo in doubt; form 1) returned a Ki on Plasminogen [1] of 16000 µM.

At Plasminogen [1], `CC[C@@H](C)[C@@H](N)C(=O)N[C@@H](Cc1ccccc1)C(=O)NC1CSCCC1=O` (stereo in doubt; form 2) displayed a Ki of 9000 µM.
